US20240408169A1 (priority 2023, published 2024)
*1 amine or outer side, *2 acyl side, *3 side chain or, on linkers, in order; H or OH if unused. Where a SMILES comes first, the peptide text is derived from it. Bridges are numbered along the chain shown (N, C = ends). [ ]: non-standard residue; d: D form. The star is where a group is joined. X75 = CC(C)C(=O)N1C2C=C(c3ccc(Cl)cc3C[C@@H](C(=O)[*:2])N(C)[*:1])CC1COC2; X57 = CC(C)C(=O)N1C2C=C(c3ccc(Cl)cc3C[C@@H](C(=O)[*:2])N(C)[*:1])CC1CC2; X116 = CN([C@@H](Cc1cc(Cl)ccc1-c1cnc2c(c1)ncn2C)C(=O)[*:2])[*:1]; X24 = CN([C@@H](Cc1cc(Cl)ccc1-c1cnn(C(C)(C)C)c1)C(=O)[*:2])[*:1]; X68 = CN([C@@H](Cc1cc(Cl)ccc1-c1cnn(C2CC2)c1)C(=O)[*:2])[*:1]; X26 = CN([C@@H](Cc1cc(F)ccc1-c1cnn(C2CC2)c1)C(=O)[*:2])[*:1]; X97 = CN([C@@H](Cc1cc(Cl)ccc1-c1ccn2ncnc2c1)C(=O)[*:2])[*:1]; NMehhhLys(Me) = CN([C@@H](CCCCCCCN(C)[*:3])C(=O)[*:2])[*:1]; X15 = CN([C@@H](Cc1cc(Cl)ccc1-c1cnn2c1CCC2)C(=O)[*:2])[*:1]; X5 = CN([C@@H](Cc1cc(Cl)ccc1-c1cnn2c1OCCC2)C(=O)[*:2])[*:1]; X22 = CN([C@@H](Cc1cc(Cl)ccc1-c1cnn(C)c1)C(=O)[*:2])[*:1]; X109 = CN([C@@H](Cc1cc(Cl)ccc1-c1ccncc1)C(=O)[*:2])[*:1]; NMe(hhhLys) = CN([C@@H](CCCCCCCN[*:3])C(=O)[*:2])[*:1]; Oxane2carbonyl(2R-CF3) = O=C([C@@]1(C(F)(F)F)CCCCO1)*; Cyclobutanecarbonyl(1-CF3) = O=C(C1(C(F)(F)F)CCC1)*; cBuCO(3,3-F2-1-CF3) = O=C(C1(C(F)(F)F)CC(F)(F)C1)*; Pro(trans-4-F) = O=C(O)[C@@H]1C[C@@H](F)CN1; X27 = O=C([C@]1(C(F)(F)F)CCCCO1)*; Gly(cPr) = N[C@H](C(=O)O)C1CC1

Experiments:
OVCAR3 cells = assay: MTT proliferation assay, OVCAR3; type: cell-based; details: 5 days compound exposure, 1:3 serial dilution starting at 10 μM;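 note: compound given as an 8- or 10-point series, one day after plating, with exposure covering roughly 3-4 cell doublings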
WI-38 cells = assay: MTT proliferation assay, WI-38; type: cell-based; details: 3 days compound exposure, 1:3 serial dilution starting at 10 μM;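 note: Eight- or ten-point dilution series, with exposure length chosen to span about three to four cell doublings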
CyclinE1/CDK2 = target: T1, CyclinE1/CDK2 (Homo sapiens, UniProt P24864); assay: Fluorescence Polarization (FP) competitive binding assay, Cyclin E1/Cdk2; details: 10 nM Cyclin E1/Cdk2, 2 nM FAM probe; average of 2-3 independent experiments; read-out: Cyclin E FP IC50;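 note: readings taken after two-hour equilibration at room temperature in HEPES buffer with NaCl, DTT, NP-40 and BSA, IC50 fitted from eight-concentration serial dilution series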
T1 construct: purchased Eurofins, discovery 14-475

NCI-H1048 cells = assay: MTT proliferation assay, NCI-H1048; type: cell-based; details: 5 days compound exposure, 1:3 serial dilution starting at 10 μM;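 note: Dose-response in 96-well plates over 8 or 10 concentration points, with exposure spanning 3-4 cell doublings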
CyclinA2/CDK2 = target: T2, CyclinA2/CDK2 (Homo sapiens, UniProt P20248); assay: Fluorescence Polarization (FP) competitive binding assay, Cyclin A2/Cdk2; details: 8 nM Cyclin A2/Cdk2, 2 nM FAM probe; average of 2-3 independent experiments; read-out: Cyclin A FP IC50;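 note: plates equilibrated two hours at room temperature before polarization reading, IC50 fitted from eight-concentration compound titration curves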
T2 construct: purchased CRELUX Protein Services

CyclinB1/CDK1 = target: T3, CyclinB1/CDK1 (Homo sapiens, UniProt P14635); assay: Fluorescence Polarization (FP) competitive binding assay, Cyclin B1/Cdk1; details: 10 nM Cyclin B1/Cdk1, 2 nM FAM probe; average of 2-3 independent experiments; read-out: Cyclin B FP IC50;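 note: fluorescence polarization read after equilibration at room temperature, with IC50 taken from serially diluted dose-response curves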
T3 construct: purchased Eurofins, discovery 14-450

SMILES | GI50 (OVCAR3 cells) [nM] | GI50 (WI-38 cells) [nM] | IC50 (CyclinE1/CDK2) [nM] | GI50 (NCI-H1048 cells) [nM] | IC50 (CyclinA2/CDK2) [nM] | IC50 (CyclinB1/CDK1) [nM]
CC(C)C[C@@H]1NC(=O)[C@@H](N(C)C(=O)[C@@H](NC(=O)[C@@H]2C[C@@H](F)CN2C(=O)C2(C(F)(F)F)CCC2)C2CC2)C/C=C\CCCCN(C)C(=O)[C@H](Cc2cc(Cl)ccc2-c2cnn(C3CC3)c2)N(C)C1=O [Example 176] | 10 | 5480 | 100 | 10 | 20 | 20
CC(C)C[C@@H]1NC(=O)[C@@H](N(C)C(=O)[C@@H](NC(=O)[C@@H]2C[C@@H](F)CN2C(=O)C2(C(F)(F)F)CC(F)(F)C2)C2CC2)CCCCCCCN(C)C(=O)[C@H](Cc2cc(Cl)ccc2-c2cnc3c(c2)ncn3C)N(C)C1=O [Example 177] ({cBuCO(3,3-F2-1-CF3)}-[Pro(trans-4-F)][Gly(cPr)][NMehhhLys(Me)]L[X116]; lactam 3-C) | 10 | 8960 | 460 | 10 | 20 | 20
CC(C)C[C@@H]1NC(=O)[C@@H](N(C)C(=O)[C@@H](NC(=O)[C@@H]2C[C@@H](F)CN2C(=O)C2(C(F)(F)F)CC(F)(F)C2)C2CC2)CCCCCCCN(C)C(=O)[C@H](Cc2cc(Cl)ccc2-c2ccn3ncnc3c2)N(C)C1=O [Example 179] ({cBuCO(3,3-F2-1-CF3)}-[Pro(trans-4-F)][Gly(cPr)][NMehhhLys(Me)]L[X97]; lactam 3-C) | 30 | 11600 | 1130 | 10 | 30 | 20
CC(C)C[C@@H]1NC(=O)[C@@H](N(C)C(=O)[C@@H](NC(=O)[C@@H]2C[C@@H](F)CN2C(=O)[C@]2(C(F)(F)F)CCCCO2)C2CC2)CCCCCCCN(C)C(=O)[C@H](Cc2cc(Cl)ccc2-c2cnn(C)c2)N(C)C1=O [Example 183] (X27-[Pro(trans-4-F)][Gly(cPr)][NMehhhLys(Me)]L[X22]; lactam 3-C) | 20 | 5070 | 280 | 10 | 30 | 20
CC(C)C[C@@H]1NC(=O)[C@@H](N(C)C(=O)[C@@H](NC(=O)[C@@H]2C[C@@H](F)CN2C(=O)[C@@]2(C(F)(F)F)CCCCO2)C2CC2)CCCCCCCN(C)C(=O)[C@H](Cc2cc(Cl)ccc2-c2cnn(C)c2)N(C)C1=O [Example 184] ({Oxane2carbonyl(2R-CF3)}-[Pro(trans-4-F)][Gly(cPr)][NMehhhLys(Me)]L[X22]; lactam 3-C) | 10 | 3650 | 100 | 10 | 20 | 20
CC(C)C[C@@H]1NC(=O)[C@@H](N(C)C(=O)[C@@H](NC(=O)[C@@H]2C[C@@H](F)CN2C(=O)C2(C(F)(F)F)CCC2)C2CC2)CCCCCCCN(C)C(=O)[C@H](Cc2cc(Cl)ccc2-c2cnn(C)c2)N(C)C1=O [Example 185] ({Cyclobutanecarbonyl(1-CF3)}-[Pro(trans-4-F)][Gly(cPr)][NMehhhLys(Me)]L[X22]; lactam 3-C) | 10 | 10400 | 110 | 10 | 20 | 20
CC(C)C[C@@H]1NC(=O)[C@@H](N(C)C(=O)[C@@H](NC(=O)[C@@H]2C[C@@H](F)CN2C(=O)C2(C(F)(F)F)CCC2)C2CC2)CCCCCCCN(C)C(=O)[C@H](Cc2cc(F)ccc2-c2cnn(C3CC3)c2)N(C)C1=O [Example 186] ({Cyclobutanecarbonyl(1-CF3)}-[Pro(trans-4-F)][Gly(cPr)][NMehhhLys(Me)]L[X26]; lactam 3-C) | 10 | 8680 | 100 | 10 | 20 | 20
CC(C)C[C@@H]1NC(=O)[C@@H](N(C)C(=O)[C@@H](NC(=O)[C@@H]2C[C@@H](F)CN2C(=O)C2(C(F)(F)F)CC(F)(F)C2)C2CC2)CCCCCCCN(C)C(=O)[C@H](Cc2cc(Cl)ccc2-c2cnn(C(C)(C)C)c2)N(C)C1=O [Example 187] ({cBuCO(3,3-F2-1-CF3)}-[Pro(trans-4-F)][Gly(cPr)][NMehhhLys(Me)]L[X24]; lactam 3-C) | 10 | 8660 | 340 | 10 | 20 | 20
CC(C)C[C@@H]1NC(=O)[C@@H](N(C)C(=O)[C@@H](NC(=O)[C@@H]2C[C@@H](F)CN2C(=O)C2(C(F)(F)F)CCC2)C2CC2)CCCCCCCNC(=O)[C@H](Cc2cc(Cl)ccc2-c2cnn(C3CC3)c2)N(C)C1=O [Example 188] ({Cyclobutanecarbonyl(1-CF3)}-[Pro(trans-4-F)][Gly(cPr)][NMe(hhhLys)]L[X68]; lactam 3-C) | 20 | 3080 | 230 | 10 | 20 | 20
CC(C)C[C@@H]1NC(=O)[C@@H](N(C)C(=O)[C@@H](NC(=O)[C@@H]2C[C@@H](F)CN2C(=O)C2(C(F)(F)F)CC(F)(F)C2)C2CC2)CC=CCCCCNC(=O)[C@H](Cc2cc(Cl)ccc2-c2cnn(C3CC3)c2)N(C)C1=O [Example 189] | 80 | 3670 | 850 | 130 | 50 | 20
CC(C)C[C@@H]1NC(=O)[C@@H](N(C)C(=O)[C@@H](NC(=O)[C@@H]2C[C@@H](F)CN2C(=O)C2(C(F)(F)F)CC(F)(F)C2)C2CC2)CCCCCCCN(C)C(=O)[C@H](Cc2cc(Cl)ccc2-c2cnn3c2CCC3)N(C)C1=O [Example 190] ({cBuCO(3,3-F2-1-CF3)}-[Pro(trans-4-F)][Gly(cPr)][NMehhhLys(Me)]L[X15]; lactam 3-C) | 10 | 1980 | 660 | 10 | 20 | 20
CC(C)C[C@@H]1NC(=O)[C@@H](N(C)C(=O)[C@@H](NC(=O)[C@@H]2C[C@@H](F)CN2C(=O)C2(C(F)(F)F)CC(F)(F)C2)C2CC2)CCCCCCCN(C)C(=O)[C@H](Cc2cc(Cl)ccc2-c2cnn3c2OCCC3)N(C)C1=O [Example 191] ({cBuCO(3,3-F2-1-CF3)}-[Pro(trans-4-F)][Gly(cPr)][NMehhhLys(Me)]L[X5]; lactam 3-C) | 10 | 2050 | 260 | 10 | 20 | 20
CC(C)C[C@@H]1NC(=O)[C@@H](N(C)C(=O)[C@@H](NC(=O)[C@@H]2C[C@@H](F)CN2C(=O)C2(C(F)(F)F)CC(F)(F)C2)C2CC2)CCCCCCCN(C)C(=O)[C@H](Cc2cc(Cl)ccc2-c2ccncc2)N(C)C1=O [Example 192] ({cBuCO(3,3-F2-1-CF3)}-[Pro(trans-4-F)][Gly(cPr)][NMehhhLys(Me)]L[X109]; lactam 3-C) | 20 | 3510 | 1140 | 20 | 20 | 20
CC(C)C[C@@H]1NC(=O)[C@@H](N(C)C(=O)[C@@H](NC(=O)[C@@H]2C[C@@H](F)CN2C(=O)C2(C(F)(F)F)CC(F)(F)C2)C2CC2)CCCCCCCNC(=O)[C@H](Cc2cc(Cl)ccc2C2=CC3CCC(C2)N3C(=O)C(C)C)N(C)C1=O (stereo partly drawn) [Example 193] ({cBuCO(3,3-F2-1-CF3)}-[Pro(trans-4-F)][Gly(cPr)][NMe(hhhLys)]L[X57]; lactam 3-C) | 20 | 7580 | 710 | 10 | 20 | 20
CC(C)C[C@@H]1NC(=O)[C@@H](N(C)C(=O)[C@@H](NC(=O)[C@@H]2C[C@@H](F)CN2C(=O)C2(C(F)(F)F)CC(F)(F)C2)C2CC2)CCCCCCCNC(=O)[C@H](Cc2cc(Cl)ccc2C2=CC3COCC(C2)N3C(=O)C(C)C)N(C)C1=O (stereo partly drawn) [Example 194] ({cBuCO(3,3-F2-1-CF3)}-[Pro(trans-4-F)][Gly(cPr)][NMe(hhhLys)]L[X75]; lactam 3-C) | 10 | 5610 | 540 | 10 | 20 | 20
